Here are results for five sequences from US20090311279A1, “Colorectal Cancer Antigen” (National Institutes of Health, priority 2004, published 2009).

For the first assay, the system named is CD4+ clone C111 T cells; 1681 CD40L B cells (HLA-DRβ1*0402). In words: Peptide-pulsed 1681 CD40L B cells, IFN-γ release from clone C111 by ELISA. It counts as cell-based, human. The conditions noted are these: 1681 CD40LB pulsed with peptide 12.5 μg/ml; 18 hrs. The procedure: (§1) Peptides of 20 or 21 amino acids in length that overlapped by 15 amino acids that were encoded by the long open reading frame of the original cDNA clone that was isolated were synthesised by solid-phase method using a peptide synthesiser (AMS 422; Gilson Co., Inc. Middleton, Wis.). The purity of the peptides was verified by mass spectrometry (Tuft's Core Facility, Boston, Mass.). […] After three hours, 1-5×10^4 T cells were added to the wells in 150 μl/well of medium and incubated for 18 hours at 37° C. and 5% CO2, followed by measurement of INF-γ release by ELISA.
(§2) Peptides that were 20 or 21 amino acids in length and that overlapped by either 14 or 16 amino acids, were than synthesised and tested for their ability to sensitise target cells for recognition by C111 T cells. Since autologous normal B cells could not be efficiently expanded, allogeneic normal B cells expressing either DRβ1*0402 or DRβ1*1301 were used to carry out these assays.
(§3) The 1681 and 1847 CD40L stimulated normal B cell lines shared expression of HLA-DRβ1*0402 and HLA-DRβ1*1301 molecules, respectively, with the autologous tumour cell line. These cells were incubated with the panel of peptides and then tested for their ability to stimulate cytokine release from C111 T cells.
A general note: ELISA stands for enzyme-linked immunosorbent assay.
Turning to “DDTLTLQAAGLVPKAALLLRA [COA-1-derived overlapping peptide]”, the IFN-γ release from clone C111 is less than 7.8 pg/mL.

Sequence “FSTFPPTLYQDDTLTLQAAG (listed as Homo sapiens) [COA-1-derived overlapping peptide]” had an IFN-γ release from clone C111 of less than 7.8 pg/mL.

With “LQAAGLVPKAALLLRARRAP [COA-1-derived overlapping peptide]”, the IFN-γ release from clone C111 is less than 7.8 pg/mL.

Consider “TLYQDDTLTLQAAGLVPKAA (listed as Homo sapiens) [COA-1-derived overlapping peptide]”, for which the IFN-γ release from clone C111 is less than 7.8 pg/mL.

The same assay, now with this note: 1681 CD40LB pulsed with peptide 25 μg/ml; 18 hrs.
Turning to “DDTLTLQAAGLVPKAALLLRA [COA-1-derived overlapping peptide]”, the IFN-γ release from clone C111 was less than 7.8 pg/mL.

“FSTFPPTLYQDDTLTLQAAG (listed as Homo sapiens) [COA-1-derived overlapping peptide]” registered an IFN-γ release from clone C111 of 69 pg/mL.

Take “LQAAGLVPKAALLLRARRAP [COA-1-derived overlapping peptide]”: the IFN-γ release from clone C111 is less than 7.8 pg/mL.

For the sequence “TLYQDDTLTLQAAGLVPKAA (listed as Homo sapiens) [COA-1-derived overlapping peptide]”, the IFN-γ release from clone C111 is less than 7.8 pg/mL.

The assay is the same for the next values; noted with them: 1681 CD40LB pulsed with peptide 26.25 μg/ml; 18 hrs.
“DDTLTLQAAGLVPKAALLLRA [COA-1-derived overlapping peptide]” gave an IFN-γ release from clone C111 of less than 7.8 pg/mL.

Take “FSTFPPTLYQDDTLTLQAAG (listed as Homo sapiens) [COA-1-derived overlapping peptide]”: the IFN-γ release from clone C111 is less than 7.8 pg/mL.

Sequence “LQAAGLVPKAALLLRARRAP [COA-1-derived overlapping peptide]” displayed an IFN-γ release from clone C111 of less than 7.8 pg/mL.

Sequence “TLYQDDTLTLQAAGLVPKAA (listed as Homo sapiens) [COA-1-derived overlapping peptide]” registered an IFN-γ release from clone C111 of less than 7.8 pg/mL.

Staying with this assay, now noted: 1681 CD40LB pulsed with peptide 50 μg/ml; 18 hrs.
In turn, “DDTLTLQAAGLVPKAALLLRA [COA-1-derived overlapping peptide]” came in with an IFN-γ release from clone C111 of 16 pg/mL.

Take “FSTFPPTLYQDDTLTLQAAG (listed as Homo sapiens) [COA-1-derived overlapping peptide]”: the IFN-γ release from clone C111 was 236 pg/mL.

Sequence “LQAAGLVPKAALLLRARRAP [COA-1-derived overlapping peptide]” displayed an IFN-γ release from clone C111 of 12 pg/mL.

As to “TLYQDDTLTLQAAGLVPKAA (listed as Homo sapiens) [COA-1-derived overlapping peptide]”, the IFN-γ release from clone C111 was 159 pg/mL.

Still in this assay, the particulars now being: 1681 CD40LB pulsed with peptide 100 μg/ml; 18 hrs.
In turn, “DDTLTLQAAGLVPKAALLLRA [COA-1-derived overlapping peptide]” had an IFN-γ release from clone C111 of 11 pg/mL.

Take “FSTFPPTLYQDDTLTLQAAG (listed as Homo sapiens) [COA-1-derived overlapping peptide]”: the IFN-γ release from clone C111 worked out at 105 pg/mL.

“LQAAGLVPKAALLLRARRAP [COA-1-derived overlapping peptide]” displayed an IFN-γ release from clone C111 of 21 pg/mL.

For the sequence “TLYQDDTLTLQAAGLVPKAA (listed as Homo sapiens) [COA-1-derived overlapping peptide]”, the IFN-γ release from clone C111 stood at 51 pg/mL.

The subject of a further assay is CD4+ clone C111 T cells; 1847 CD40L B cells (HLA-DRβ1*1301). The assay can be described thus: Peptide-pulsed 1847 CD40L B cells, IFN-γ release from clone C111 by ELISA. The conditions noted are these: 1847 CD40LB pulsed with peptide 12.5 μg/ml; 18 hrs. It counts as cell-based, human. The method, then:
as §1, §2, §3
As to “ASAFEIFSTFPPTLYQDDTL [COA-1-derived overlapping peptide]”, the IFN-γ release from clone C111 is less than 7.8 pg/mL.

“DDTLTLQAAGLVPKAALLLRA [COA-1-derived overlapping peptide]” returned an IFN-γ release from clone C111 of less than 7.8 pg/mL.

“FSTFPPTLYQDDTLTLQAAG (listed as Homo sapiens) [COA-1-derived overlapping peptide]” displayed an IFN-γ release from clone C111 of 79 pg/mL.

As to “LQAAGLVPKAALLLRARRAP [COA-1-derived overlapping peptide]”, the IFN-γ release from clone C111 is less than 7.8 pg/mL.

“TLYQDDTLTLQAAGLVPKAA (listed as Homo sapiens) [COA-1-derived overlapping peptide]” came in with an IFN-γ release from clone C111 of less than 7.8 pg/mL.

The assay is the same for the next values; noted with them: 1847 CD40LB pulsed with peptide 25 μg/ml; 18 hrs.
The sequence “ASAFEIFSTFPPTLYQDDTL [COA-1-derived overlapping peptide]” registered an IFN-γ release from clone C111 of less than 7.8 pg/mL.

Regarding “DDTLTLQAAGLVPKAALLLRA [COA-1-derived overlapping peptide]”, the IFN-γ release from clone C111 was less than 7.8 pg/mL.

Regarding “FSTFPPTLYQDDTLTLQAAG (listed as Homo sapiens) [COA-1-derived overlapping peptide]”, the IFN-γ release from clone C111 amounted to 296 pg/mL.

As to “LQAAGLVPKAALLLRARRAP [COA-1-derived overlapping peptide]”, the IFN-γ release from clone C111 is less than 7.8 pg/mL.

Regarding “TLYQDDTLTLQAAGLVPKAA (listed as Homo sapiens) [COA-1-derived overlapping peptide]”, the IFN-γ release from clone C111 was less than 7.8 pg/mL.

The same assay, now with this note: 1847 CD40LB pulsed with peptide 26.25 μg/ml; 18 hrs.
In turn, “ASAFEIFSTFPPTLYQDDTL [COA-1-derived overlapping peptide]” yielded an IFN-γ release from clone C111 of less than 7.8 pg/mL.

“DDTLTLQAAGLVPKAALLLRA [COA-1-derived overlapping peptide]” yielded an IFN-γ release from clone C111 of less than 7.8 pg/mL.

Sequence “FSTFPPTLYQDDTLTLQAAG (listed as Homo sapiens) [COA-1-derived overlapping peptide]” gave an IFN-γ release from clone C111 of less than 7.8 pg/mL.

With “LQAAGLVPKAALLLRARRAP [COA-1-derived overlapping peptide]”, the IFN-γ release from clone C111 was less than 7.8 pg/mL.

In the case of “TLYQDDTLTLQAAGLVPKAA (listed as Homo sapiens) [COA-1-derived overlapping peptide]”, the IFN-γ release from clone C111 is less than 7.8 pg/mL.

The assay is the same for the next values; noted with them: 1847 CD40LB pulsed with peptide 50 μg/ml; 18 hrs.
“ASAFEIFSTFPPTLYQDDTL [COA-1-derived overlapping peptide]” displayed an IFN-γ release from clone C111 of less than 7.8 pg/mL.

For “DDTLTLQAAGLVPKAALLLRA [COA-1-derived overlapping peptide]”, the IFN-γ release from clone C111 is 33 pg/mL.

With “FSTFPPTLYQDDTLTLQAAG (listed as Homo sapiens) [COA-1-derived overlapping peptide]”, the IFN-γ release from clone C111 was 397 pg/mL.

In the case of “LQAAGLVPKAALLLRARRAP [COA-1-derived overlapping peptide]”, the IFN-γ release from clone C111 was 32 pg/mL.

“TLYQDDTLTLQAAGLVPKAA (listed as Homo sapiens) [COA-1-derived overlapping peptide]” returned an IFN-γ release from clone C111 of 326 pg/mL.

The assay is the same for the next values; noted with them: 1847 CD40LB pulsed with peptide 100 μg/ml; 18 hrs.
Sequence “ASAFEIFSTFPPTLYQDDTL [COA-1-derived overlapping peptide]” had an IFN-γ release from clone C111 of less than 7.8 pg/mL.

“DDTLTLQAAGLVPKAALLLRA [COA-1-derived overlapping peptide]” returned an IFN-γ release from clone C111 of 22 pg/mL.

As to “FSTFPPTLYQDDTLTLQAAG (listed as Homo sapiens) [COA-1-derived overlapping peptide]”, the IFN-γ release from clone C111 amounted to 226 pg/mL.

“LQAAGLVPKAALLLRARRAP [COA-1-derived overlapping peptide]” returned an IFN-γ release from clone C111 of 52 pg/mL.

The sequence “TLYQDDTLTLQAAGLVPKAA (listed as Homo sapiens) [COA-1-derived overlapping peptide]” came in with an IFN-γ release from clone C111 of 79 pg/mL.

In a further assay the test system is C111 T cells. The assay can be described thus: Peptide pulsing of target cells expressing HLA-DRβ1*0402 or 1301, cytokine release from C111 T cells. It counts as cell-based, human. The note with it: 1681 and 1847 CD40L B cells pulsed with peptide. The procedure:
Peptides of 20 or 21 amino acids in length that overlapped by 15 amino acids that were encoded by the long open reading frame of the original cDNA clone that was isolated were synthesised by solid-phase method using a peptide synthesiser (AMS 422; Gilson Co., Inc. Middleton, Wis.). The purity of the peptides was verified by mass spectrometry (Tuft's Core Facility, Boston, Mass.). Allogeneic B cells (1×10^5 cells/well) that expressed either the DRβ1*0402 or the DRβ1*1301 molecules were incubated with 50 μg/ml in 100 μl/well of ISCOVE'S medium plus 10% HS in flat bottom-96-well plates. After three hours, 1-5×10^4 T cells were added to the wells in 150 μl/well of medium and incubated for 18 hours at 37° C. and 5% CO2, followed by measurement of INF-γ release by ELISA.
as §2
The 1681 and 1847 CD40L stimulated normal B cell lines shared expression of HLA-DRβ1*0402 and HLA-DRβ1*1301 molecules, respectively, with the autologous tumour cell line. […]
Turning to “FSTFPPTLYQDDTLTLQAAG (listed as Homo sapiens) [COA-1-derived overlapping peptide]”, the “cytokine release from C111 T cells” value was “stimulated significant cytokine release”.

As for “TLYQDDTLTLQAAGLVPKAA (listed as Homo sapiens) [COA-1-derived overlapping peptide]”, the “cytokine release from C111 T cells” value was “stimulated significant cytokine release”.
